The record followed here is the supplement of paper PMC10307832.

Common to all, as to experiment: relative viability (nuclei count vs DMSO), 5 days (fraction); higher = more cells survive
Compound in the assay “Selisistat + AZD7762”: C1CC(C2=C(C1)C3=C(N2)C=CC(=C3)Cl)C(=O)N [Selisistat] + NC(=O)Nc1cc(-c2cccc(F)c2)sc1C(=O)N[C@H]1CCCNC1 [AZD7762] (partner 0.2 µM)
In short, it runs like this: (§1)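 Lung cancer cell lines in 1536-well plates got either a single drug or a fixed anchor-drug dose together with five library-drug doses (not always all listed) in √10 steps, by pin tool, on the day after seeding. Nuclei were counted after 5 days, and relative viability is the treated-to-vehicle ratio of nuclei counts. Values are medians of duplicate plates.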

Compound in the assay “Selisistat + Olaparib”: C1CC(C2=C(C1)C3=C(N2)C=CC(=C3)Cl)C(=O)N [Selisistat] + O=C(c1cc(Cc2n[nH]c(=O)c3ccccc23)ccc1F)N1CCN(C(=O)C2CC2)CC1 [Olaparib] (partner 8 µM)
Summed up: as §1

Compound in the assay “Serdemetan + Foretinib”: c1ccc2c(CCNc3ccc(Nc4ccncc4)cc3)c[nH]c2c1 [Serdemetan] + COc1cc2c(Oc3ccc(NC(=O)C4(C(=O)Nc5ccc(F)cc5)CC4)cc3F)ccnc2cc1OCCCN1CCOCC1 [Foretinib] (partner 0.25 µM)
Summed up:
as §1

Compound in the assay “Serdemetan + Crizotinib”: c1ccc2c(CCNc3ccc(Nc4ccncc4)cc3)c[nH]c2c1 [Serdemetan] + C[C@@H](Oc1cc(-c2cnn(C3CCNCC3)c2)cnc1N)c1c(Cl)ccc(F)c1Cl [Crizotinib] (partner 1 µM)
In short, it runs like this:
as §1

On to NCI-H650, for which the relative viability with Selisistat + AZD7762 (first compound 0.4 µM) was found to be 1.15; with Selisistat + AZD7762 (first compound 1.265 µM) it was 0.988; with Selisistat + AZD7762 (first compound 4 µM) it was 1; with Selisistat + AZD7762 (first compound 12.65 µM) it was 0.867; in the assay with Selisistat + AZD7762 (first compound 40 µM) it was 1.13; with Selisistat + Olaparib (first compound 0.4 µM), 0.51. Moreover, the relative viability with Selisistat + Olaparib (first compound 1.265 µM) amounted to 0.379; with Selisistat + Olaparib (first compound 4 µM), 0.496; with Selisistat + Olaparib (first compound 12.65 µM), 0.382; in the assay with Selisistat + Olaparib (first compound 40 µM), 0.3; in the assay with Serdemetan + Foretinib (first compound 0.04 µM) it was 0.986; with Serdemetan + Foretinib (first compound 0.1265 µM), 1.01. The relative viability came out at 1.08 with Serdemetan + Foretinib (first compound 0.4 µM); 0.936 with Serdemetan + Foretinib (first compound 1.265 µM); 0.777 with Serdemetan + Foretinib (first compound 4 µM); 0.549 in the assay with Serdemetan + Crizotinib (first compound 0.04 µM); 0.735 with Serdemetan + Crizotinib (first compound 0.1265 µM); 0.636 with Serdemetan + Crizotinib (first compound 0.4 µM). Also, the relative viability was determined as 0.723 with Serdemetan + Crizotinib (first compound 1.265 µM) and 0.566 in the assay with Serdemetan + Crizotinib (first compound 4 µM).
Regarding NCI-H727, the relative viability in the assay with Selisistat + AZD7762 (first compound 0.4 µM) was determined as 0.675; in the assay with Selisistat + AZD7762 (first compound 1.265 µM) it was 0.563; with Selisistat + AZD7762 (first compound 4 µM), 0.369; with Selisistat + AZD7762 (first compound 12.65 µM), 0.615; with Selisistat + AZD7762 (first compound 40 µM), 0.527; with Selisistat + Olaparib (first compound 0.4 µM) it was 0.737. The relative viability stood at 0.635 with Selisistat + Olaparib (first compound 1.265 µM); 0.631 with Selisistat + Olaparib (first compound 4 µM); 0.655 with Selisistat + Olaparib (first compound 12.65 µM); 0.687 with Selisistat + Olaparib (first compound 40 µM); 0.831 with Serdemetan + Foretinib (first compound 0.04 µM); 0.737 with Serdemetan + Foretinib (first compound 0.1265 µM). Also, the relative viability with Serdemetan + Foretinib (first compound 0.4 µM) came to 1.32; in the assay with Serdemetan + Foretinib (first compound 1.265 µM), 0.634; with Serdemetan + Foretinib (first compound 4 µM) it was 0.437; with Serdemetan + Crizotinib (first compound 0.04 µM), 1.01; with Serdemetan + Crizotinib (first compound 0.1265 µM), 0.638; with Serdemetan + Crizotinib (first compound 0.4 µM), 0.665. The relative viability with Serdemetan + Crizotinib (first compound 1.265 µM) came out at 0.427; with Serdemetan + Crizotinib (first compound 4 µM) it was 0.439.
Take NCI-H838: the relative viability with Selisistat + AZD7762 (first compound 0.4 µM) is 0.933; with Selisistat + AZD7762 (first compound 1.265 µM) it was 0.91; with Selisistat + AZD7762 (first compound 4 µM), 0.958; with Selisistat + AZD7762 (first compound 12.65 µM) it was 0.971; with Selisistat + AZD7762 (first compound 40 µM), 1.03; with Selisistat + Olaparib (first compound 0.4 µM), 0.833. The relative viability stood at 0.782 with Selisistat + Olaparib (first compound 1.265 µM); 0.842 in the assay with Selisistat + Olaparib (first compound 4 µM); 0.75 with Selisistat + Olaparib (first compound 12.65 µM); 0.733 with Selisistat + Olaparib (first compound 40 µM); 1.03 with Serdemetan + Foretinib (first compound 0.04 µM); 0.983 with Serdemetan + Foretinib (first compound 0.1265 µM). For the same cell line, the relative viability in the assay with Serdemetan + Foretinib (first compound 0.4 µM) amounted to 1.02; with Serdemetan + Foretinib (first compound 1.265 µM), 0.951; in the assay with Serdemetan + Foretinib (first compound 4 µM) it was 1.09; with Serdemetan + Crizotinib (first compound 0.04 µM), 0.781; in the assay with Serdemetan + Crizotinib (first compound 0.1265 µM), 0.886; with Serdemetan + Crizotinib (first compound 0.4 µM) it was 0.827. Besides, the relative viability was 0.794 in the assay with Serdemetan + Crizotinib (first compound 1.265 µM) and 1.01 with Serdemetan + Crizotinib (first compound 4 µM).
As for NCI-H1355, the relative viability with Selisistat + AZD7762 (first compound 0.4 µM) amounted to 0.774; with Selisistat + AZD7762 (first compound 1.265 µM), 0.753; with Selisistat + AZD7762 (first compound 4 µM), 0.717; in the assay with Selisistat + AZD7762 (first compound 12.65 µM), 0.819; in the assay with Selisistat + AZD7762 (first compound 40 µM), 0.814; with Selisistat + Olaparib (first compound 0.4 µM), 0.796. Besides, the relative viability with Selisistat + Olaparib (first compound 1.265 µM) amounted to 0.775; in the assay with Selisistat + Olaparib (first compound 4 µM), 0.664; in the assay with Selisistat + Olaparib (first compound 12.65 µM) it was 0.735; with Selisistat + Olaparib (first compound 40 µM) it was 0.813; with Serdemetan + Foretinib (first compound 0.04 µM) it was 0.963; in the assay with Serdemetan + Foretinib (first compound 0.1265 µM) it was 0.955. In addition, the relative viability was 0.798 in the assay with Serdemetan + Foretinib (first compound 0.4 µM); 0.907 with Serdemetan + Foretinib (first compound 1.265 µM); 0.66 with Serdemetan + Foretinib (first compound 4 µM); 0.97 with Serdemetan + Crizotinib (first compound 0.04 µM); 1 in the assay with Serdemetan + Crizotinib (first compound 0.1265 µM); 1.02 with Serdemetan + Crizotinib (first compound 0.4 µM). Further, the figures for the relative viability with Serdemetan + Crizotinib (first compound 1.265 µM) and with Serdemetan + Crizotinib (first compound 4 µM) were 1.06 and 0.781, respectively.
As to NCI-H1437, the relative viability in the assay with Selisistat + AZD7762 (first compound 0.4 µM) was 1.17; in the assay with Selisistat + AZD7762 (first compound 1.265 µM), 1.12; in the assay with Selisistat + AZD7762 (first compound 4 µM) it was 0.918; with Selisistat + AZD7762 (first compound 12.65 µM), 0.99; with Selisistat + AZD7762 (first compound 40 µM), 1.01; in the assay with Selisistat + Olaparib (first compound 0.4 µM), 0.599. Further, the relative viability with Selisistat + Olaparib (first compound 1.265 µM) worked out at 0.615; in the assay with Selisistat + Olaparib (first compound 4 µM), 0.618; with Selisistat + Olaparib (first compound 12.65 µM), 0.565; with Selisistat + Olaparib (first compound 40 µM) it was 0.544; in the assay with Serdemetan + Foretinib (first compound 0.04 µM), 1.31; in the assay with Serdemetan + Foretinib (first compound 0.1265 µM), 1.19. The relative viability was determined as 1.27 in the assay with Serdemetan + Foretinib (first compound 0.4 µM); 1.08 with Serdemetan + Foretinib (first compound 1.265 µM); 0.963 with Serdemetan + Foretinib (first compound 4 µM); 0.835 in the assay with Serdemetan + Crizotinib (first compound 0.04 µM); 1.03 with Serdemetan + Crizotinib (first compound 0.1265 µM); 0.786 with Serdemetan + Crizotinib (first compound 0.4 µM). The relative viability with Serdemetan + Crizotinib (first compound 1.265 µM) is 0.778; in the assay with Serdemetan + Crizotinib (first compound 4 µM), 0.8.
Turning to NCI-H1651, the relative viability with Selisistat + AZD7762 (first compound 0.4 µM) worked out at 0.426; in the assay with Selisistat + AZD7762 (first compound 1.265 µM), 0.491; in the assay with Selisistat + AZD7762 (first compound 4 µM), 0.462; with Selisistat + AZD7762 (first compound 12.65 µM) it was 0.521; with Selisistat + AZD7762 (first compound 40 µM) it was 0.523; with Selisistat + Olaparib (first compound 0.4 µM), 0.197. In addition, the relative viability with Selisistat + Olaparib (first compound 1.265 µM) came out at 0.168; with Selisistat + Olaparib (first compound 4 µM), 0.215; with Selisistat + Olaparib (first compound 12.65 µM), 0.183; with Selisistat + Olaparib (first compound 40 µM), 0.21; with Serdemetan + Foretinib (first compound 0.04 µM), 0.724; in the assay with Serdemetan + Foretinib (first compound 0.1265 µM), 0.515. Besides, the relative viability in the assay with Serdemetan + Foretinib (first compound 0.4 µM) is 0.407; in the assay with Serdemetan + Foretinib (first compound 1.265 µM), 0.465; in the assay with Serdemetan + Foretinib (first compound 4 µM) it was 0.235; with Serdemetan + Crizotinib (first compound 0.04 µM), 0.82; with Serdemetan + Crizotinib (first compound 0.1265 µM), 0.79; in the assay with Serdemetan + Crizotinib (first compound 0.4 µM) it was 0.793. For the same cell line, the relative viability with Serdemetan + Crizotinib (first compound 1.265 µM) is 0.462; with Serdemetan + Crizotinib (first compound 4 µM) it was 0.356.
